# US9017974B2, “Method for the synthesis of porphyrin-phospholipid conjugates” (priority 2011, dated 2015)
# Legend:
# Format in all cases: biochemical
# [1] = target: T1, Lipase from Rhizomucor miehei (Rhizomucor miehei, UniProt P19515); conditions: 37 C, 3 hours, 0.025% Triton X100, 5 mM Tris pH 8, HPLC/MS
# T1 sequence (P19515 95-363): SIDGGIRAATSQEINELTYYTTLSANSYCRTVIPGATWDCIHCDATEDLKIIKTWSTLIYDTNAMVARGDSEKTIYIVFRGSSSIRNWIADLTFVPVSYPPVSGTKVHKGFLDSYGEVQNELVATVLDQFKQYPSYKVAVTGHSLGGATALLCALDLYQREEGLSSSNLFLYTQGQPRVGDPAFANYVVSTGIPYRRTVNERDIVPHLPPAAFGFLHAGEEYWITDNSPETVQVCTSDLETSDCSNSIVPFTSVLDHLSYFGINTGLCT
# [2] = target: Lipase from Thermomyces lanuginosus (LTL) (Thermomyces lanuginosus, UniProt O59952); conditions: pH 8
# [3] = target: Lipase from Pseudomonas cepacia (Burkholderia cepacia, UniProt P22088); conditions: 37 C, 3 hours, 0.025% Triton X100, 5 mM Tris pH 8, HPLC/MS
# Chain of Lipase from Pseudomonas cepacia (P22088 45-364): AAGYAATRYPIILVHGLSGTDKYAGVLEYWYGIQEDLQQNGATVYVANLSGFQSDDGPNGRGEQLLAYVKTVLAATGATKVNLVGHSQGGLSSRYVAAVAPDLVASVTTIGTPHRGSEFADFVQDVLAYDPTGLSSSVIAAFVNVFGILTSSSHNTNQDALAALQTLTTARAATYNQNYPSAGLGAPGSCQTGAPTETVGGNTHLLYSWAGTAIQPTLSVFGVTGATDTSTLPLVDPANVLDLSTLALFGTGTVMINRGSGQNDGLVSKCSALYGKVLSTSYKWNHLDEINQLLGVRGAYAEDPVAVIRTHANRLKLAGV
# Chain of Lipase from Thermomyces lanuginosus (LTL) (O59952 23-291): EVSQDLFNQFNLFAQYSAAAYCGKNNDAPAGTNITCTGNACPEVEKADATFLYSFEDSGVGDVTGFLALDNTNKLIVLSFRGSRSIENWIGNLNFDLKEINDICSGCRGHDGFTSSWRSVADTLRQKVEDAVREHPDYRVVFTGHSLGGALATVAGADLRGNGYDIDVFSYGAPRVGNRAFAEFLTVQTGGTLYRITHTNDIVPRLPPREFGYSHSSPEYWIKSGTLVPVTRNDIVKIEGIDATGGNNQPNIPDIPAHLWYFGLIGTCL
smiles,measurement,setting,value
C=Cc1c(C)c2cc3nc(c4c5[nH]c(cc6nc(cc1[nH]2)C(C)=C6CC)c(C)c5C(=O)C4)[C@@H](CCC(=O)O[C@H](COC(=O)CCCCCCCCCCCCCCC)COP(=O)([O-])OCC[N+](C)(C)C)[C@@H]3C [sn-2 pyro-lipid],cleavage of pyro-lipid regioisomer by lipase from Rhizomucor miehei,[1],preferentially cleaved
same,cleavage of pyro-lipid regioisomer by LTL,[2],selectively cleaved
same,cleavage of pyro-lipid regioisomer by lipase from Pseudomonas cepacia,[3],preferentially cleaved
